Converted amounts (≈) assume the structure as drawn.
Legend:
Type in all cases: functional
Candida albicans = experiment: Antifungal activity against fluconazole-sensitive Candida albicans SC5314 after 24 hrs by serial dilution method; details: SC5314, 24 h
Trichophyton rubrum = experiment: Antifungal activity against Trichophyton rubrum Cmccftla after 7 days by serial dilution method; details: 168 h
Cryptococcus neoformans = experiment: Antifungal activity against Cryptococcus neoformans 32609 after 72 hrs by serial dilution method; details: Cryptococcus neoformans, 32609, 72 h
Candida parapsilosis = experiment: Antifungal activity against Candida parapsilosis ATCC 22019 after 24 hrs by serial dilution method; details: Lodderomyces parapsilosis, ATCC 22019, 24 h
Nannizzia gypsea = experiment: Antifungal activity against Microsporum gypseum Cmccfmza after 7 days by serial dilution method; details: 168 h
Candida tropicalis = experiment: Antifungal activity against Candida tropicalis after 7 days by serial dilution method; details: 168 h
Pichia kudriavzevii = experiment: Antifungal activity against Candida krusei 0710397 after 7 days by serial dilution method; details: Pichia kudriavzevii, 0710397, 168 h
Aspergillus fumigatus = experiment: Antifungal activity against Aspergillus fumigatus 07544 after 7 days by serial dilution method; details: Aspergillus fumigatus, 07544, 168 h
Nakaseomyces glabratus = experiment: Antifungal activity against Candida glabrata 537 after 24 hrs by serial dilution method; details: Nakaseomyces glabratus, 537, 24 h

| SMILES | MIC80 (Candida albicans) [µg/mL] | MIC80 (Trichophyton rubrum) [µg/mL] | MIC80 (Cryptococcus neoformans) [µg/mL] | MIC80 (Candida parapsilosis) [µg/mL] | MIC80 (Nannizzia gypsea) [µg/mL] | MIC80 (Candida tropicalis) [µg/mL] | MIC80 (Pichia kudriavzevii) [µg/mL] | MIC80 (Aspergillus fumigatus) [µg/mL] | MIC80 (Nakaseomyces glabratus) [µg/mL] |
| --- | --- | --- | --- | --- | --- | --- | --- | --- | --- |
| Cc1ccccc1OCCCn1c2c(c3cc(F)ccc31)CNCC2 | 4 (≈ 11.8 µM) | 4 (≈ 11.8 µM) | 4 (≈ 11.8 µM) | 16 (≈ 47.3 µM) | 4 (≈ 11.8 µM) | 64 (≈ 189 µM) | 16 (≈ 47.3 µM) | – | – |
| CN1CCc2c(c3cc(Cl)ccc3n2C(=O)Cc2ccccc2)C1 | > 64 | > 64 | > 64 | > 64 | > 64 | – | – | > 64 | > 64 |
| CC(C)(C)c1ccc(OCCCn2c3c(c4cc(F)ccc42)CNCC3)cc1 | 8 (≈ 21 µM) | 4 (≈ 10.5 µM) | 8 (≈ 21 µM) | 4 (≈ 10.5 µM) | 4 (≈ 10.5 µM) | 4 (≈ 10.5 µM) | 16 (≈ 42 µM) | – | – |
| Cc1ccc2c(c1)c1c(n2CCCOc2ccc(F)cc2)CCNC1 | 4 (≈ 11.8 µM) | 4 (≈ 11.8 µM) | 16 (≈ 47.3 µM) | 16 (≈ 47.3 µM) | 4 (≈ 11.8 µM) | 64 (≈ 189 µM) | 16 (≈ 47.3 µM) | – | – |
| Cc1cccc(OCCCn2c3c(c4cc(F)ccc42)CNCC3)c1 | 8 (≈ 23.6 µM) | 4 (≈ 11.8 µM) | 8 (≈ 23.6 µM) | 4 (≈ 11.8 µM) | 4 (≈ 11.8 µM) | 16 (≈ 47.3 µM) | 16 (≈ 47.3 µM) | – | – |
| Fc1ccc2c(c1)c1c(n2CCCOc2ccccc2)CCNC1 | 8 (≈ 24.7 µM) | 8 (≈ 24.7 µM) | 8 (≈ 24.7 µM) | > 64 | 4 (≈ 12.3 µM) | 64 (≈ 197 µM) | 16 (≈ 49.3 µM) | – | – |
| Fc1ccc(NCCCn2c3c(c4cc(F)ccc42)CNCC3)cc1 | 8 (≈ 23.4 µM) | 32 (≈ 93.7 µM) | 32 (≈ 93.7 µM) | 16 (≈ 46.9 µM) | 16 (≈ 46.9 µM) | 64 (≈ 187 µM) | 16 (≈ 46.9 µM) | – | – |
| Fc1ccc(OCCCn2c3c(c4cc(F)ccc42)CNCC3)cc1 | 8 (≈ 23.4 µM) | 8 (≈ 23.4 µM) | 8 (≈ 23.4 µM) | 16 (≈ 46.7 µM) | 8 (≈ 23.4 µM) | 16 (≈ 46.7 µM) | 4 (≈ 11.7 µM) | – | – |
| Fc1ccc(F)c(OCCCn2c3c(c4cc(F)ccc42)CNCC3)c1 | 4 (≈ 11.1 µM) | 8 (≈ 22.2 µM) | 16 (≈ 44.4 µM) | 64 (≈ 178 µM) | 2 (≈ 5.55 µM) | 16 (≈ 44.4 µM) | 4 (≈ 11.1 µM) | – | – |
| CN1CCc2c(c3cc(Cl)cc(Cl)c3n2CCCOc2ccc(Cl)cc2)C1 | > 64 | > 64 | 16 (≈ 37.8 µM) | > 64 | 16 (≈ 37.8 µM) | – | – | > 64 | > 64 |
| CN1CCc2c(c3cc(Cl)ccc3n2C(=O)c2ccccc2Br)C1 | > 64 | > 64 | > 64 | 64 (≈ 159 µM) | > 64 | – | – | > 64 | > 64 |
| CN1CCc2c(c3cc(Cl)ccc3n2C(=O)c2ccc(Cl)cc2)C1 | > 64 | 32 (≈ 89.1 µM) | 32 (≈ 89.1 µM) | 64 (≈ 178 µM) | > 64 | – | – | > 64 | 32 (≈ 89.1 µM) |
| CN1CCc2c(c3cc(C(F)(F)F)ccc3n2CCCOc2ccc(Cl)cc2)C1 | > 64 | 64 (≈ 151 µM) | 64 (≈ 151 µM) | > 64 | 64 (≈ 151 µM) | – | – | > 64 | 64 (≈ 151 µM) |
| Fc1cc(F)c(OCCCn2c3c(c4cc(F)ccc42)CNCC3)c(F)c1 | 8 (≈ 21.1 µM) | 4 (≈ 10.6 µM) | 4 (≈ 10.6 µM) | 4 (≈ 10.6 µM) | 4 (≈ 10.6 µM) | 16 (≈ 42.3 µM) | 4 (≈ 10.6 µM) | – | – |
| COc1ccc2c(c1)c1c(n2CCCOc2ccc(Cl)cc2)CCN(C)C1 | 32 (≈ 83.1 µM) | 8 (≈ 20.8 µM) | 8 (≈ 20.8 µM) | 32 (≈ 83.1 µM) | 8 (≈ 20.8 µM) | – | – | 32 (≈ 83.1 µM) | > 64 |
| C#CCn1c2c(c3cc(Cl)ccc31)CN(C)CC2 | > 64 | > 64 | 32 (≈ 124 µM) | 64 (≈ 247 µM) | 32 (≈ 124 µM) | – | – | > 64 | 64 (≈ 247 µM) |
| Fc1ccc2c(c1)c1c(n2CCCOc2c(F)cccc2F)CCNC1 | 4 (≈ 11.1 µM) | 2 (≈ 5.55 µM) | 8 (≈ 22.2 µM) | 64 (≈ 178 µM) | 1 (≈ 2.77 µM) | 16 (≈ 44.4 µM) | 4 (≈ 11.1 µM) | – | – |
| Fc1ccc(OCCCn2c3c(c4cc(Br)ccc42)CNCC3)cc1 | 4 (≈ 9.92 µM) | 8 (≈ 19.8 µM) | 4 (≈ 9.92 µM) | 4 (≈ 9.92 µM) | 4 (≈ 9.92 µM) | 16 (≈ 39.7 µM) | 4 (≈ 9.92 µM) | – | – |
| Fc1ccc(OCCCn2c3c(c4cc(Cl)ccc42)CNCC3)cc1 | 4 (≈ 11.1 µM) | 8 (≈ 22.3 µM) | 4 (≈ 11.1 µM) | 4 (≈ 11.1 µM) | 4 (≈ 11.1 µM) | 4 (≈ 11.1 µM) | 4 (≈ 11.1 µM) | – | – |
| CN1CCc2c(c3cc(Cl)ccc3n2Cc2cccc(Cl)c2)C1 | 64 (≈ 185 µM) | 8 (≈ 23.2 µM) | 16 (≈ 46.3 µM) | 32 (≈ 92.7 µM) | 16 (≈ 46.3 µM) | – | – | 32 (≈ 92.7 µM) | 16 (≈ 46.3 µM) |
| Fc1ccc2c(c1)c1c(n2CCCOc2ccc(F)c(F)c2F)CCNC1 | 8 (≈ 21.1 µM) | 8 (≈ 21.1 µM) | 4 (≈ 10.6 µM) | 64 (≈ 169 µM) | 4 (≈ 10.6 µM) | 4 (≈ 10.6 µM) | 4 (≈ 10.6 µM) | – | – |

Reference: ChEMBL document CHEMBL3286225, “Novel carboline derivatives as potent antifungal lead compounds: design, synthesis, and biological evaluation” (ACS Med Chem Lett, 2014)
